Columns and labels:
[1] = tested on: LNCaP prostate cancer cell line; settings: LNCaP cells; at high levels of DHT
JN-DSRCT cell line = settings: JN-DSRCT cells; at high levels of DHT
[2] = tested on: TC-71 Ewing sarcoma cells; settings: TC-71 ES cells, lack AR expression

For `C[C@]12CCC(=O)C[C@@H]1CC[C@@H]1[C@@H]2CC[C@]2(C)[C@@H](O)CC[C@@H]12` [DHT, 5a-dihydrotestosterone], the “proliferation on stimulation with AR agonist” value (“proliferation on stimulation” for short) [1] was “increased proliferation”, the “proliferation on stimulation” value (JN-DSRCT cell line) was “increased proliferation” and the “proliferation on stimulation” value [2] was “no effect and not”.
`C[C@]12CC[C@H]3[C@@H](CCC4=CC(=O)CC[C@@]43C)[C@@H]1CC[C@@H]2O` [testosterone] was tested, and the “proliferation on stimulation” value [1] was “increased proliferation”, the “proliferation on stimulation” value (JN-DSRCT cell line) was “increased proliferation” and the “proliferation on stimulation” value [2] was “no effect”.

Reference: patent US20220002723A1, “METHODS FOR THE TREATMENT OF SMALL ROUND CELL TUMORS” (Board of Regents, The University of Texas System, priority 2018, published 2022)
